Source: PMC6197744, “Triazolo[4,5-d]pyrimidines as Validated General Control Nonderepressible 2 (GCN2) Protein Kinase Inhibitors Reduce Growth of Leukemia Cells” (Computational and Structural Biotechnology Journal, 2018)

What was measured:
Assay in all cases: NCI-60 one-dose screen
Type in all cases: cell-based
[1] = system: MOLT-4; settings: Homo sapiens; Leukemia MOLT-4, 10 μM, 48 h; read-out: Percent growth inhibition
Method: (§1) Compounds 1 and 2 were submitted to the National Cancer Institute NCI-60 Tumor Cell Screening Program (NCI number 800,700 and 800,701, respectively) for evaluation against the 60 cell line NCI panel at a single dose of 10 μM. […] Leukemia and breast cancer cell lines comprised the only cancer groups that were uniformly sensitive to both 1 and 2, with the greatest sensitivity seen in the leukemia SR cell line.
(§2) Compounds 1 and 2 were submitted to the NCI for growth inhibition screening against its panel of 60 cancer cell lines. The NCI screening protocol has extensively been described [[53], [54], [55], [56]]. Briefly, cancerous cell lines were grown in RPMI 1640 medium containing 5% fetal bovine serum and 2 mM L-glutamine. Depending on the doubling time of each cell line, 5000–40,000 cells were seeded in 96-well plates for 24 h. Cells were then treated with compounds 1 or 2 at a concentration of 10 μM and incubated for 48 h at 37 °C in a humidified atmosphere containing 5% CO2. The cells were then fixed and stained with sulforhodamine B (SRB) to determine their viability. The data were analyzed using a program called COMPARE to determine the percent growth inhibition of each compound.

[2] = system: SNB-75; settings: Homo sapiens; CNS SNB-75, 10 μM, 48 h; read-out: Percent growth inhibition
Method: as §1, §2

[3] = system: HOP-62; settings: Homo sapiens; Non-Small Cell Lung HOP-62, 10 μM, 48 h; read-out: Percent growth inhibition
Method: as §1, §2

[4] = system: OVCAR-8; settings: Homo sapiens; Ovarian OVCAR-8, 10 μM, 48 h; read-out: Percent growth inhibition
Method: as §1, §2

[5] = system: NCI-H23; settings: Homo sapiens; Non-Small Cell Lung NCI-H23, 10 μM, 48 h; read-out: Percent growth inhibition
Method: as §1, §2

[6] = system: HT29; settings: Homo sapiens, HT-29, 48 h, Colon HT29, 10 μM, read-out: Percent growth inhibition
Method: as §1, §2

[7] = system: SNB-19; settings: Homo sapiens; CNS SNB-19, 10 μM, 48 h; read-out: Percent growth inhibition
Method: as §1, §2

[8] = system: NCI-H522; settings: Homo sapiens; Non-Small Cell Lung NCI-H522, 10 μM, 48 h; read-out: Percent growth inhibition
Method: as §1, §2

[9] = system: UACC-62; settings: Homo sapiens; Melanoma UACC-62, 10 μM, 48 h; read-out: Percent growth inhibition
Method: as §1, §2

[10] = system: SK-MEL-5; settings: Homo sapiens; Melanoma SK-MEL-5, 10 μM, 48 h; read-out: Percent growth inhibition
Method: as §1, §2

[11] = system: UACC-257; settings: Homo sapiens; Melanoma UACC-257, 10 μM, 48 h; read-out: Percent growth inhibition
Method: as §1, §2

[12] = system: MDA-MB-231; settings: Homo sapiens; Breast MDA-MB-231, 10 μM, 48 h; read-out: Percent growth inhibition
Method: as §1, §2

[13] = system: LOXIMVI; settings: Homo sapiens, LOX IMVI, Melanoma LOXIMVI, 48 h, read-out: Percent growth inhibition
Method: as §1, §2

[14] = system: EKVX; settings: Homo sapiens, Non-Small Cell Lung EKVX, 48 h, read-out: Percent growth inhibition
Method: as §1, §2

[15] = system: SF-268; settings: Homo sapiens; CNS SF-268, 10 μM, 48 h; read-out: Percent growth inhibition
Method: as §1, §2

[16] = system: RXF393; settings: Homo sapiens, RXF 393; Renal RXF393, 10 μM, 48 h; read-out: Percent growth inhibition
Method: as §1, §2

[17] = system: SN12C; settings: Homo sapiens, Renal SN12C, 48 h, read-out: Percent growth inhibition
Method: as §1, §2

[18] = system: HCT-116; settings: Homo sapiens, HCT-116, 48 h, Colon HCT-116, 10 μM, read-out: Percent growth inhibition
Method: as §1, §2

[19] = system: SF-295; settings: Homo sapiens; CNS SF-295, 10 μM, 48 h; read-out: Percent growth inhibition
Method: as §1, §2

[20] = system: PC-3; settings: Homo sapiens; Prostate PC-3, 10 μM, 48 h; read-out: Percent growth inhibition
Method: as §1, §2

[21] = system: SK-MEL-28; settings: Homo sapiens; Melanoma SK-MEL-28, 10 μM, 48 h; read-out: Percent growth inhibition
Method: as §1, §2

[22] = system: MDA-MB-435; settings: Homo sapiens; Melanoma MDA-MB-435, 10 μM, 48 h; read-out: Percent growth inhibition
Method: as §1, §2

[23] = system: U251; settings: Homo sapiens, U-251; CNS U251, 10 μM, 48 h; read-out: Percent growth inhibition
Method: as §1, §2

[24] = system: BT-549; settings: Homo sapiens; Breast BT-549, 10 μM, 48 h; read-out: Percent growth inhibition
Method: as §1, §2

[25] = system: OVCAR-3; settings: Homo sapiens; Ovarian OVCAR-3, 10 μM, 48 h; read-out: Percent growth inhibition
Method: as §1, §2

[26] = system: IGROV1; settings: Homo sapiens, IGROV-1; Ovarian IGROV1, 10 μM, 48 h; read-out: Percent growth inhibition
Method: as §1, §2

[27] = system: HCT-15; settings: Homo sapiens; Colon HCT-15, 10 μM, 48 h; read-out: Percent growth inhibition
Method: as §1, §2

[28] = system: NCI/ADR-RES; settings: Homo sapiens, Ovarian NCI/ADR-RES, 48 h, read-out: Percent growth inhibition
Method: as §1, §2

[29] = system: ACHN; settings: Homo sapiens, Renal ACHN, 48 h, read-out: Percent growth inhibition
Method: as §1, §2

Structure (SMILES)	inhibition at 10 µM [1] [%]	inhibition at 10 µM [2] [%]	inhibition at 10 µM [3] [%]	inhibition at 10 µM [4] [%]	inhibition at 10 µM [5] [%]	inhibition at 10 µM [6] [%]	inhibition at 10 µM [7] [%]	inhibition at 10 µM [8] [%]	inhibition at 10 µM [9] [%]	inhibition at 10 µM [10] [%]	inhibition at 10 µM [11] [%]	inhibition at 10 µM [12] [%]	inhibition at 10 µM [13] [%]	inhibition at 10 µM [14] [%]	inhibition at 10 µM [15] [%]	inhibition at 10 µM [16] [%]	inhibition at 10 µM [17] [%]	inhibition at 10 µM [18] [%]	inhibition at 10 µM [19] [%]	inhibition at 10 µM [20] [%]	also measured
CCn1cc(Nc2ncc3nnn(-c4ccc(C(=O)OC)cc4)c3n2)cn1 [Compound 1, Methyl 4-(5-((1-ethyl-1H-pyrazol-4-yl)amino)-3H-[1,2,3]triazolo[4,5-d]pyrimidin-3-yl)benzoate]	21.6	23.4	21.1	13.8	3.87	47	-9.34	24.3	5.19	40.4	13.6	0.42	34.9	-4.33	0.6	-4.13	1.94	42.7	-2.41	16.7	inhibition at 10 µM [21]: -4.08%; inhibition at 10 µM [22]: 9.99%; inhibition at 10 µM [23]: 27.6%; inhibition at 10 µM [24]: 24.2%; inhibition at 10 µM [25]: 8.48%; inhibition at 10 µM [26]: -16.8%; inhibition at 10 µM [27]: 11.2%; inhibition at 10 µM [28]: -8.6%; inhibition at 10 µM [29]: 1.27%
CCOc1ccc(-n2nnc3cnc(Nc4cnn(CC)c4)nc32)cc1 [Compound 2, 3-(4-Ethoxyphenyl)-N-(1-ethyl-1H-pyrazol-4-yl)-3H-[1,2,3]triazolo[4,5-d]pyrimidin-5-amine]	23.2	44.6	15.7	21.2	5.25	39.7	-0.19	31.8	1.67	26.4	21.3	7.57	45.7	-5.32	12.7	43.8	12.5	43.7	3.75	23.4	inhibition at 10 µM [21]: -2.62%; inhibition at 10 µM [22]: 20%; inhibition at 10 µM [23]: 24.3%; inhibition at 10 µM [24]: 16.2%; inhibition at 10 µM [25]: 6.71%; inhibition at 10 µM [26]: 5.39%; inhibition at 10 µM [27]: 0.66%; inhibition at 10 µM [28]: 1.5%; inhibition at 10 µM [29]: 17.8%
